From patent US9096536B2, “Asymmetrically substituted anthrapyridazone derivatives as cytostatics” (BS-154 S.P. ZO.O., priority 2011, dated 2015)
Converted amounts (≈) assume the structure as drawn. Like-named read-outs stand apart in the source and are kept apart here.

How the values were obtained:
[1] = tested on: human promyelocytic leukemia cell line HL-60; test: Cytostatic activity in vitro, HL-60 sensitive line; type: cell-based; settings: 50% inhibition of cell growth after 72 h continuous exposure, read-out: HL60 IC50
[2] = tested on: HL60/VINC; test: Cytostatic activity in vitro, vincristine-induced resistant subline (MDR-1); type: cell-based, human; settings: for IC50: 72 h continuous exposure; for RI resistance index HL60/VINC: IC50(resistant cells)/IC50(sensitive cells), HL60/VINC vs HL60, 72 h
[3] = tested on: HL60/DX; test: Cytostatic activity in vitro, doxorubicin-induced resistant subline (MRP); type: cell-based, human; settings: for IC50: 72 h continuous exposure; for RI resistance index HL60/DX: IC50(resistant cells)/IC50(sensitive cells), HL60/DX vs HL60, 72 h
[4] = tested on: human prostate cancer cell line DU145; test: Cytostatic activity in vitro, prostate cancer DU145; type: cell-based; settings: 72 h continuous exposure
Text: (§1) Table 5 presents activity in vitro of anthrapiridazone derivatives towards three cell lines of prostate cancer, naturally multidrug resistant, in comparison with references doxorubicin, mitoxantrone and taxol.

[5] = tested on: human prostate cancer cell line LNCaP; test: Cytostatic activity in vitro, prostate cancer LNCaP; type: cell-based; settings: 72 h continuous exposure
Text: as §1

[6] = tested on: human prostate cancer cell line PC3; test: Cytostatic activity in vitro, prostate cancer PC3; type: cell-based; settings: 72 h continuous exposure
Text: as §1

[7] = tested on: human breast cancer cell line MCF7; test: Cytostatic activity in vitro, breast cancer MCF7; type: cell-based; settings: 72 h continuous exposure
Text: (§2) It should be mentioned that resistance index is above one order of magnitude better in comparison with doxorubicin and mitoxantrone.

[8] = tested on: MCF7/DX; test: Cytostatic activity in vitro, resistant breast cancer subline MCF7/DX (MDR-1); type: cell-based, human; settings: for IC50: 72 h continuous exposure; for RI resistance index MCF7/DX: IC50(resistant cells)/IC50(sensitive cells), MCF7/DX vs MCF7
Text: as §2

[9] = tested on: human colon adenocarcinoma HT29; test: Cytostatic activity in vitro, colon adenocarcinoma HT29; type: cell-based; settings: 72 h continuous exposure
Text: (§3) Table 7 presents activity in vitro of selected anthrapyridazone derivatives according to the invention towards sensitive and resistant (MDR-1 type) cell line of human colon adenocarcinoma with resistance induced by mitoxantrone.

[10] = tested on: HT29/MIT; test: Cytostatic activity in vitro, mitoxantrone-induced resistant subline HT29/MIT; type: cell-based, human; settings: for IC50: 72 h continuous exposure; for RI resistance index HT29/MIT: IC50(resistant cells)/IC50(sensitive cells), HT29/MIT vs HT29
Text: as §3

[11] = tested on: uterus cancer MES-SA; test: Cytostatic activity, panel: uterus cancer MES-SA; type: cell-based; settings: 72 h continuous exposure
Text: (§4) Tables 8A and 8B present cytostatic activity in vitro of selected anthrapyridazone derivatives according to the invention against panel of sensitive and resistant cell lines, in comparison with doxorubicin, cisplatine and mitoxantrone.

[12] = tested on: MES-SA/DX5; test: Cytostatic activity, panel: MES-SA/DX5 resistant to doxorubicin; type: cell-based; settings: for RI MES-SA MES-SA/DX5: IC50(resistant cells)/IC50(sensitive cells)
Text: as §4

[13] = tested on: colon cancer LoVo; test: Cytostatic activity, panel: colon cancer LoVo; type: cell-based; settings: 72 h continuous exposure
Text: as §4

[14] = tested on: LoVo/DX; test: Cytostatic activity, panel: LoVo/DX resistant to doxorubicin; type: cell-based; settings: for RI LoVo LoVo/DX: IC50(resistant cells)/IC50(sensitive cells)
Text: as §4

[15] = tested on: lymphoblastic leukemia CCRF-CEM; test: Cytostatic activity, panel: lymphoblastic leukemia CCRF-CEM; type: cell-based; settings: 72 h continuous exposure
Text: as §4

[16] = tested on: CEM/C2; test: Cytostatic activity, panel: CEM/C2 resistant to camptotecine; type: cell-based; settings: for RI CCRF-CEM CEM/C2: IC50(resistant cells)/IC50(sensitive cells)
Text: as §4

[17] = tested on: promyelolytic leukemia HL-60; test: Cytostatic activity, panel: promyelolytic leukemia HL-60; type: cell-based; settings: 72 h continuous exposure
Text: as §4

[18] = tested on: HL60/MX2; test: Cytostatic activity, panel: HL60/MX2 resistant to mitoxantrone; type: cell-based; settings: for RI HL60 HL60/MX2: IC50(resistant cells)/IC50(sensitive cells)
Text: as §4

[19] = tested on: CT-DNA; test: Interaction with isolated CT-DNA, fluorescence competition with ethidium bromide; type: binding; settings: for IC50: 50% decrease in fluorescence intensity of DNA-bromide ethydine complex; for Kapp relative constant of DNA-compound bonding: Kapp = (1.26/C50) × KEtBr, KEtBr = 10^7M
Text: It could be supposed that this property explains cytostatic activity of compounds. In Table 9 there are presented quantitative data on the affinity to DNA of tested compounds using the fluorescence method and competitive affinity to DNA of bromine ethydine and tested compounds.

[20] = tested on: HL60/VINC; test: Substrate properties: activity against HL60/VINC in the presence of cyclosporine A (MDR-1 pump inhibitor); type: cell-based, human; settings: FIG. 2
Text: FIG. 2 shoes experimentally determined substrate properties of selected antgraoyridazone derivatives vs. Doxorubicin and Mitroxantrone. Activity in vitro against human promyelacytic leykemia cell line HL60/VINC in the presence of cyclosporine A (MDR-1 pump inhibitor).

[21] = tested on: HL60/DX; test: Substrate properties: activity against HL60/DX in the presence of BSO (MRP pump inhibitor); type: cell-based, human; settings: FIG. 3
Text: Activity in vitro against human promyelolytic leukemia HL60/DX in the presence of D-L-buthionine-(S,R)-sulphoximine (BSO), MRP pump inhibitor.

CNCCNc1ccc2c(=O)n(CCN(C)C)nc3c2c1C(=O)c1ccccc1-3 [BS-154, 2-[2-(Dimethyloamino)ethyl]-6-{[2-(methylamino)ethyl]amino}-2,7-dihydro-3H -dibenzo[de,h]cynnoline-3,7-dione]
IC50 [1]: 0.9 ± 0.1 nM | IC50 [2]: 8.1 ± 1 nM | RI resistance index HL60/VINC [2]: 9.0 | IC50 [3]: 375 ± 41 nM | RI resistance index HL60/DX [3]: 416.7 | IC50 [4]: 3 ± 0.7 nM | IC50 [5]: 2.6 ± 0.3 nM | IC50 [6]: 14 ± 3.3 nM | IC50 [7]: 8.8 ± 0.6 nM | IC50 [8]: 8.7 ± 1.2 nM | RI resistance index MCF7/DX [8]: 1.0 | IC50 [9]: 5.2 ± 1.3 nM | IC50 [10]: 11.2 ± 2.2 nM | RI resistance index HT29/MIT [10]: 2.1 | IC50 MES-SA [11]: 0.01333 ± 0.00238 µg/mL (≈ 0.0341 µM) | IC50 MES-SA/DX5 ([12]; 72 h continuous exposure): 0.03833 ± 0.01136 µg/mL (≈ 0.0979 µM) | RI MES-SA MES-SA/DX5 [12]: 2.9 | IC50 LoVo [13]: 0.00153 ± 0.00102 µg/mL (≈ 0.00391 µM) | IC50 LoVo/DX ([14]; 72 h continuous exposure): 0.06842 ± 0.01273 µg/mL (≈ 0.175 µM) | RI LoVo LoVo/DX [14]: 44.7 | IC50 CCRF-CEM [15]: 0.00373 ± 0.00193 µg/mL (≈ 0.00953 µM) | IC50 CEM/C2 ([16]; 72 h continuous exposure): 0.00124 ± 0.00137 µg/mL (≈ 0.00317 µM) | RI CCRF-CEM CEM/C2 [16]: 0.3 | IC50 HL60 [17]: 0.00111 ± 0.00002 µg/mL (≈ 0.00284 µM) | IC50 HL60/MX2 ([18]; 72 h continuous exposure): 0.00545 ± 0.00304 µg/mL (≈ 0.0139 µM) | RI HL60 HL60/MX2 [18]: 4.9 | IC50 [19]: 290 ± 10 nM | Kapp relative constant of DNA-compound bonding [19]: 4.28e+07 M⁻¹ | Effect of blocking MDR-1 pump with cyclosporine A (CSA) on cytostatic activity [20]: does not essentially affect the cytostatic activity | Effect of MRP protein inhibitor (BSO) on cytostatic activity [21]: only partially

O=C1c2c(O)ccc(O)c2C(=O)c2c(NCCNCCO)ccc(NCCNCCO)c21 [Mitoxantrone, 1,4-dihydroxy-5,8-bis[2-(2-hydroxyethylamino)ethylamino]-9,10-anthracenodione, reference compound]
IC50 ([1]; Homo sapiens, HL-60): 2.1 ± 0.2 nM | IC50 ([2]; Homo sapiens, HL60/vinc): 65.7 ± 6.7 nM | RI resistance index HL60/VINC [2]: 31.3 | IC50 ([3]; Homo sapiens, HL-60): 3430 ± 661 nM | RI resistance index HL60/DX [3]: 1633.8 | IC50 ([4]; Homo sapiens, DU-145): 8.5 ± 1.5 nM | IC50 ([5]; Homo sapiens, LNCaP): 7.4 ± 1.1 nM | IC50 ([6]; Homo sapiens): 18.6 ± 3.8 nM | IC50 ([7]; Homo sapiens, MCF7): 7.4 ± 1.9 nM | IC50 ([8]; Homo sapiens, MCF7/DX): 471 ± 160 nM | RI resistance index MCF7/DX [8]: 63.6 | IC50 ([9]; Homo sapiens, HT-29): 11.4 ± 3.9 nM | IC50 ([10]; Homo sapiens, HT-29): 854 ± 158 nM | RI resistance index HT29/MIT [10]: 74.9 | IC50 ([11]; Homo sapiens, MES-SA): 0.23 ± 0.121 µg/mL (≈ 0.517 µM) | IC50 ([12]; Homo sapiens, MES-SA/Dx5, 72 h continuous exposure): 0.66 ± 0.059 µg/mL (≈ 1.48 µM) | RI MES-SA MES-SA/DX5 [12]: 2.9 | IC50 ([13]; Homo sapiens, LoVo): 0.22 ± 0.067 µg/mL (≈ 0.495 µM) | RI LoVo LoVo/DX [14]: 9.5 | IC50 ([14]; LoVo/DX, 72 h continuous exposure): 2.09 ± 0.519 µg/mL (≈ 4.7 µM) | IC50 ([15]; Homo sapiens, CCRF-CEM): 0.0025 µg/mL (≈ 0.00562 µM) | IC50 ([16]; Homo sapiens, CEM/C2, 72 h continuous exposure): 0.0028 µg/mL (≈ 0.0063 µM) | RI CCRF-CEM CEM/C2 [16]: 1.1 | IC50 ([17]; Homo sapiens, HL-60, read-out: IC50 HL60): 0.0083 µg/mL (≈ 0.0187 µM) | IC50 ([18]; Homo sapiens, HL60/MX2, 72 h continuous exposure): 0.356 µg/mL (≈ 0.801 µM) | RI HL60 HL60/MX2 [18]: 42.9 | IC50 [19]: 48 ± 4 nM | Kapp relative constant of DNA-compound bonding [19]: 2.61e+08 M⁻¹ | Effect of blocking MDR-1 pump with cyclosporine A (CSA) on cytostatic activity [20]: has positive influence on maintaining the cytostatic activity | Effect of MRP protein inhibitor (BSO) on cytostatic activity [21]: essentially influences the cytostatic activity
